Measured values as given in patent US8835644B2, “Broad spectrum benzothiophene-nitrothiazolide and other antimicrobials” (University of Virginia Patent Foundation, priority 2009, dated 2014).
≈ marks a conversion by molar mass, not a printed value. Like-named read-outs stand apart in the source and are kept apart here.

Columns and labels:
[1] = system: S. haemolyticus strain 33208; experiment: Biofilm determination, crystal violet, S. haemolyticus; type: cell-based; conditions: Staphylococcus haemolyticus; S. haemolyticus strain 33208, crystal violet; read-out: IC50 biofilm production
Experimental: Staphylococcal strains were cultured overnight in TSB at 37° C. with shaking, diluted in fresh medium to an OD600 of 0.01 and 200 W was dispensed into sterile flat bottom polystyrene 96 well microtiter plates (Costar 3596, Corning Inc.). […] Each compound and dilution was tested in triplicate. The plates were incubated overnight at 37° C. in a humidified incubator, without shaking and both growth and biofilm accumulation were determined at 16 h.
Following recording of turbidities, the culture medium was aspirated and the wells were washed three times with distilled water, blotted on paper towels, and fixed with 75% ethanol for 10 minutes.
To visualize biofilm material, 0.5% crystal violet was added to each well and after 5 minutes was removed and the wells washed three times with distilled water. Plates were read using a microplate reader at a wavelength of 570 nm. The dye was then extracted by adding 200 W of 95% ethanol, and the absorbance was read again at 570 nm. All assays were performed in triplicate and the mean and standard deviation determined. Generally, the ethanol-solubilized crystal violet was more reliable and these determinations are reported throughout.

[2] = system: AafA fimbriae of EAEC 042; experiment: Fimbrial filaments by SDS-PAGE, immunoblot, immunofluorescence; type: cell-based, Escherichia coli; conditions: EAEC 042, MinA-G, 20 μg/ml
Experimental: A simplified procedure for mechanical removal of fimbriae was modified from Dodd and Eisenstein (5). […] The cultures were spun down at 4,000 rpm for 5 min at 25° C. Pellets were resuspended in 2 ml PBS, vortexed 2× for 30 sec to shear off flagella and fimbriae, and then centrifuged at 8,000 rpm for 10 min to remove whole cells. The supernatants, containing fimbrial filaments, were transferred to new tubes, and 8 ml of acetone were added to precipitate proteins. Solutions were spun down again at 8,000 rpm for 10 min, and the acetone was decanted. The remaining protein pellets were resuspended in 50 μl PBS and 100 μl 3× loading buffer containing 2-mercaptoethanol.
To analyze the proteins contained in the biofilm, the flasks were rinsed with water to remove residual bacteria, and the biofilms were dissolved in 1-2 ml 1% SDS. 50 μl of each solution was combined with 100 μl 3× loading buffer in PCR tubes. All five samples were run in a NuPAGE 4-12% Bis-Tris gel at 120 V and stained with Coomassie brilliant blue or used directly for transfer of proteins to nitrocellulose.
Ponceau red stained nitrocellulose was used to visualize transferred proteins and immunoblotting protocols used in this study as described (14). […] The slides were washed 3× in PBS, dried and visualized with a Zeiss epi-fluorescence microscope.

C. jejuni = experiment: MIC testing by broth dilution, C. jejuni; type: cell-based, Campylobacter jejuni
How it was run: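 Compounds were diluted serially from 32 μg/ml to 0.06 in medium holding a standard inoculum, then visually scored at 24 h, and the lowest well without growth was recorded. Media were LB for E. coli, Trypticase Soy for S. epidermidis and Brain Heart Infusion for C. jejuni. C. difficile zones were measured anaerobically relative to NTZ.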

CC(=O)Oc1ccccc1C(=O)Nc1ncc([N+](=O)[O-])s1 [Nitazoxanide, 2-(acetyloxy)-N-(5-nitro-2-thiazolyl)benzamide, reference compound]
IC50 [1]: 2.5 µg/mL (≈ 8.14 µM) | Fimbrial filaments from vortexed whole cells [2]: nearly absent | MIC (C. jejuni; 2-amino-3,5-dinitrothiophene analogues table, read-out: MIC C. jejuni): 39.1 µM (≈ 12 µg/mL) | MIC (C. jejuni; Campylobacter jejuni, Furan analogues table, read-out: MIC C. jejuni): 39.1 µM (≈ 12 µg/mL) | MIC (C. jejuni; Campylobacter jejuni, broth dilution, Brain Heart Infusion, 24 h, read-out: MIC (μM) C. jejuni): 39.1 µM (≈ 12 µg/mL) | MIC (C. jejuni; Thiophene analogues table, read-out: MIC C. jejuni): 39.1 µM (≈ 12 µg/mL)
